Results on 33 molecules are retold here after patent US12509441B2, “Compounds used as kinase inhibitors and application thereof” (TYK MEDICINES (ZHENGZHOU), INC., priority 2020, dated 2025).

The target in assay [1] is T1, Ba/F3-FL-EGFR-V769-D770 ins ASV (Homo sapiens, UniProt P00533, DUP767-769, cells depend on it).
T1 construct: Ba/F3-FL-EGFR IC50 (nM) V769-D770ins ASV; other: 72 h; class symbols; Ba/F3-FL-EGFR IC50 (nM) V769-D770ins ASV
As to the kind of experiment: Cell proliferation inhibitory activity test (CellTiter-Glo), EGFR exon 20 insertion mutation. The assay is classed as cell-based. Conditions: 72 h; class symbols; read-out: Ba/F3-FL-EGFR IC50 (nM) V769-D770ins ASV. (In ATP-based viability assays light output follows the ATP content of the culture.)
Protocol: (§1) Cell Proliferation Inhibitory Activity Test Experiment of EGFR Exon 20 Insertion Mutation:
(§2) Cells such as Ba/F3-FL-EGFR-V769-D770 ins ASV, Ba/F3-FL-EGFR-D77-N771 ins SVD, Ba/F3-FL-EGFR-H773-V774 ins NPH, Ba/F3-FL-EGFR-A763-Y764 ins FQEA, constructed by Hefei Precedo Pharmaceuticals Co., Ltd.
(§3) 1000× compound mother liquor was prepared using DMSO, diluted to 20× final concentration using a culture medium, set aside.
(§4) Cells obtained after centrifugation were suspended with a certain amount of the culture medium and counted. The cell suspension solution was adjusted to a specified density using the culture medium, the diluted cell suspension solution was taken into a 96-well plate; 5 μl of 20× compound solution was added to each well of the 96-well plate, the content of DMSO in the final system was 0.1%; the 96-well plate was incubated for 72 h in a 5% CO2 cell incubator at 37° C.
(§5) The 96-well plate was brought to room temperature before detection, 50 μl of CellTiter-Glo® reagent was added to each well, the plate was read after being shaken for 2 minutes on a shaker and placed for 10 minutes at room temperature.
(§6) Inhibition rate (Inh %) relative to control wells processed by a solvent (DMSO) was calculated using the following equation: Inhibition rate (Inh %)=100−(RLU compound−RLU blank)/(RLU control−RLU blank)*100%

Assay [2] deals with EGFR exon 20 insertion mutant kinase A763_Y764insFHEA (Homo sapiens, UniProt P00533, INS763FHEA). The assay can be described thus: Kinase activity assay (33P-ATP filter-binding), EGFR exon 20 insertion mutant kinase A763_Y764insFHEA. The assay is classed as biochemical. Conditions: for IC50: ATP Km concentration, 10 concentrations.
Assay [3] addresses EGFR exon 20 insertion mutant kinase D770-N771insNPG (Homo sapiens, UniProt P00533, INS770NPG). The assay can be described thus: Kinase activity assay (33P-ATP filter-binding), EGFR exon 20 insertion mutant kinase D770-N771insNPG. Conditions: ATP Km concentration; 10 concentrations. The assay is classed as biochemical.
The target of assay [4] is Ba/F3-FL-EGFR-H773-V774 ins NPH (Homo sapiens, UniProt P00533, DUP771-773, cells depend on it). The assay can be described thus: Cell proliferation inhibitory activity test (CellTiter-Glo), EGFR exon 20 insertion mutation. The assay is classed as cell-based. Conditions: 72 h; class symbols; read-out: Ba/F3-FL-EGFR IC50 (nM) H773-V774ins NPH.
Protocol: as §1, §2, §3, §4, §5, §6
Assay [5] addresses Ba/F3-FL-EGFR-A763-Y764 ins FQEA (Homo sapiens, UniProt P00533, INS763FQEA, cells depend on it). Described as above. Conditions: 72 h; class symbols; read-out: Ba/F3-FL-EGFR IC50 (nM) A763-Y764ins FQEA. The assay is classed as cell-based.
Protocol: as §1, §2, §3, §4, §5, §6
The target of assay [6] is Ba/F3-FL-EGFR-D77-N771 ins SVD (Homo sapiens, UniProt P00533, DUP768-770, cells depend on it). Described as above. The assay is classed as cell-based. Conditions: 72 h; class symbols; read-out: Ba/F3-FL-EGFR IC50 (nM) D77-N771ins SVD.
Protocol: as §1, §2, §3, §4, §5, §6
Assay [7] relates to H-1975 (EGFRL858R/T790M) cells. As to the kind of experiment: Cell proliferation inhibitory activity test (WST-8) of related EGFR mutations. The assay is classed as cell-based. Conditions: Homo sapiens, NCI-H1975, 72 h, read-out: IC 50 (nM) H-1975 (EGFRL858/T790M). In general terms: Formazan colour is commonly taken as a measure of viable cells.
Protocol: (§7) Cell Proliferation Inhibitory Activity Test Experiments of Related EGFR Mutations: 1.
(§8) Cell culture medium: RPMI containing 10% fetal bovine serum, 5 mM HEPES, and 2 mM glutamine.
(§9) Incubated overnight in a 5% carbon dioxide incubator at 37° C.
(§10) The compound was diluted to the required concentration in the culture medium at five times the final concentration. 20 microliters of the compound diluent was transferred to a culture plate containing 80 microliters of the cells incubated overnight, and continued to be incubated for 72 hours.
(§11) After 72 hours, 10 microliters of 6 mg/ml WST8 solution dissolved in a phosphate buffer solution was added, and incubated for 3 hours in 5% carbon dioxide at 37° C. A light absorption value at 450 nm was read and subtracted by an absorption value at 650 nm.
(§12) The obtained light absorption value was used to calculate cell viability according to the following equation: Cell viability %=(OD determination value/OD drug-free cell)×100
In a further assay the test system is PC9 (EGFRdel19) cells. Described as above. Conditions: 72 h, cell viability; read-out: IC 50 (nM) PC-9 (EGFRdel19). The assay is classed as cell-based.

Protocol for PC9 (EGFRdel19) cells: as §7, §8, §9, §10, §11, §12

As for `C=CC(=O)Nc1cc(Nc2ncc(-c3nnc(C)o3)c(-c3cn(C)c4ccccc34)n2)c(OC)cc1N1C[C@H]2CN(C)C[C@H]2C1` [Example 28], in assay [1], the GI50 was above 50 nM.

Turning to `C=CC(=O)Nc1cc(Nc2ncc(-c3nnc(C)o3)c(-c3cn(C4CC4)c4ccccc34)n2)c(OCC(F)(F)F)nc1N(C)CCN(C)C` [Example 4], the values for the IC50 in assay [2] and in assay [3] were 15.3 nM and 2.79 nM, respectively.

On to `C=CC(=O)Nc1cc(Nc2ncc(-c3nnc(C)s3)c(-c3cn(C)c4ccccc34)n2)c(OC)cc1N(C)CCN(C)C` [Example 25], for which the GI50 in assay [1] was below 5 nM; in assay [4], 5 to 50 nM; in assay [5], below 5 nM; in assay [6], 5 to 50 nM.

With `C=CC(=O)Nc1cc(Nc2ncc(-c3nnc(C)o3)c(-c3cn(C)c4ccccc34)n2)c(OC)cc1N(C)CC1(N(C)C)CC1` [Example 23], the GI50 in assay [1], in assay [4], in assay [5] and in assay [6] was below 5 nM each time.

In the case of `[2H]C([2H])([2H])n1cc(-c2nc(Nc3cc(NC(=O)C=C)c(N(C)CCN(C)C)nc3OCC(F)(F)F)ncc2-c2nnc(C)o2)c2ccccc21` [Example 3], the IC50 is 6.07 nM in assay [2] and 1.48 nM in assay [3].

Turning to `C=CC(=O)Nc1cc(Nc2ncc(C(=O)N(C)S(C)(=O)=O)c(-c3cn(C)c4ccccc34)n2)c(OC)cc1N(C)CCN(C)C` [Example 9], the figures for the IC50 in assay [2] and in assay [3] were 10.4 nM and 1.83 nM, respectively.

In the case of `[2H]C([2H])([2H])n1cc(-c2nc(Nc3cc(NC(=O)C=C)c(N(C)CCN(C)C)cc3OC)ncc2-c2nnc(C)o2)c2ccccc21` [Example 24], the GI50 in assay [1], in assay [4], in assay [5] and in assay [6] was below 5 nM each time.

On to `C=CC(=O)Nc1cc(Nc2ncc(C(=O)OC(C)C)c(-c3cn(C)c4ccccc34)n2)c(OC)cc1N(C)[C@H]1C[C@@H]2CN(C)C[C@@H]2C1` [Example 43], for which the GI50 in assay [1] is below 5 nM.

Take `C=CC(=O)Nc1cc(Nc2ncc(-c3nnc(C)o3)c(-c3cn(C)c4ccccc34)n2)c(OC)cc1N(C)C1CCN(C)CC1` [Example 32]: the GI50 in assay [1] fell in the range of 5 to 50 nM.

For the molecule `C=CC(=O)Nc1cc(Nc2ncc(-c3nnco3)c(-c3cn(C)c4ccccc34)n2)c(OC)cc1N(C)CCN(C)C` [Example 21], the GI50 in assay [1] is below 5 nM.

For the molecule `C=CC(=O)Nc1cc(Nc2ncc(C3=NOC(C)(C)O3)c(-c3cn(C)c4ccccc34)n2)c(OC)cc1N(C)CCN(C)C` [Example 20], the GI50 in assay [1] is above 50 nM.

Take `C=CC(=O)Nc1cc(Nc2ncc(C(=O)OC(C)C)c(-c3nn(C)c4c3Cc3ccccc3-4)n2)c(OC)cc1N(C)CCN(C)C` [Example 14]: the values for the IC50 in assay [2] and in assay [3] were 44.6 nM and 10.1 nM, respectively.

With `C=CC(=O)Nc1cc(Nc2ncc(-c3nnc(C(F)F)s3)c(-c3cn(C)c4ccccc34)n2)c(OC)cc1N(C)CCN(C)C` [Example 29], the GI50 in assay [1] is 5 to 50 nM; in assay [4] it was 5 to 50 nM; in assay [5], below 5 nM; in assay [6] it was below 5 nM.

Consider `C=CC(=O)Nc1cc(Nc2ncc(-c3nnc(CC)o3)c(-c3cn(C)c4ccccc34)n2)c(OC)cc1N(C)CCN(C)C` [Example 33], for which the GI50 in assay [1], in assay [4], in assay [5] and in assay [6] was below 5 nM in each case.

Consider `C=CC(=O)Nc1cc(Nc2ncc(C(=O)OC(C)C)c(-n3cc4c(n3)-c3ccccc3C4)n2)c(OC)cc1N(C)CCN(C)C` [Example 12], for which the IC50 in assay [2] worked out at 2.27 nM; in assay [3], 0.3 nM. The “activity relative to the compound with the optimal activity disclosed in WO2015195228A1 (TAK788)” value in assay [2] (EGFR exon 20 insertion mutant kinases of Table 4) lay in the range of 2 to 3 times.

As for `C=CC(=O)Nc1cc(Nc2ncc(-c3nnc(C)o3)c(-c3cn(C)c4ccccc34)n2)c(OC)cc1N(C)C1CC2(C1)CN(C)C2` [Example 30], in assay [1], the GI50 is above 50 nM.

Take `C=CC(=O)Nc1cc(Nc2ncc(C(=O)OC(C)C)c(-c3cn(C)c4ccccc34)n2)c(OC)cc1N(C)[C@H]1[C@@H]2CN(C)C[C@@H]21` [Example 40]: the GI50 in assay [1], in assay [4], in assay [5] and in assay [6] was below 5 nM each time.

With `C=CC(=O)Nc1cc(Nc2ncc(C(=O)OC(C)C)c(-c3cn(C)c4ccccc34)n2)c(OC)cc1N(C)CC1(N(C)C)CC1` [Example 41], the GI50 in assay [1], in assay [4], in assay [5] and in assay [6] was below 5 nM throughout.

`C=C(F)C(=O)Nc1cc(Nc2ncc(-c3nnc(C)o3)c(-c3cn(C)c4ccccc34)n2)c(OC)cc1N(C)CCN(C)C` [Example 27]: the GI50 in assay [1] fell in the range of 5 to 50 nM.

As to `C=C(F)C(=O)Nc1cc(Nc2ncc(-c3nnc(C)o3)c(-c3cn(C)c4ccccc34)n2)c(OC)cc1N(C)[C@H]1[C@@H]2CN(C)C[C@@H]21` [Example 34], the GI50 in assay [1] is below 5 nM; in assay [4] it was 5 to 50 nM; in assay [5], below 5 nM; in assay [6] it was below 5 nM.

For `C=CC(=O)Nc1cc(Nc2ncc(C(=O)OC(C)C)c(-n3ncc4c3-c3ccccc3C4)n2)c(OC)cc1N(C)CCN(C)C` [Example 11], the IC50 in assay [3] worked out at 7360 nM.

As to `C=CC(=O)Nc1cc(Nc2nccc(-c3cn(C)c4ccccc34)n2)c(OC)cc1N(C)CCN(C)C` [AZD-9291, osimertinib, reference compound], the IC50 amounted to 20.2 nM in assay [7] and 7.85 nM with PC9 (EGFRdel19) cells.

`C=CC(=O)Nc1cc(Nc2ncc(C(=O)OC(C)C)c(-c3cn(C)c4ccccc34)n2)c(OC)cc1N(C)C1(CN(C)C)CC1` [Example 42]: the GI50 in assay [1] is below 5 nM.

`[2H]C([2H])([2H])n1cc(-c2nc(Nc3cc(NC(=O)C=C)c(N(C)[C@H]4[C@@H]5CN(C)C[C@@H]54)cc3OC)ncc2C(=O)OC(C)C)c2ccccc21` [Example 47]: the GI50 in assay [1], in assay [4], in assay [5] and in assay [6] was below 5 nM each time.

Regarding `C=CC(=O)Nc1cc(Nc2ncc(C(=O)OC(C)C)c(-c3cn(C)c4ccccc34)n2)c(OC)cc1N1C[C@H]2CN(C)C[C@H]2C1` [Example 36], the GI50 in assay [1], in assay [4], in assay [5] and in assay [6] was below 5 nM throughout.

On to `C=CC(=O)Nc1cc(Nc2ncc(-c3nnc(C)o3)c(-c3c[nH]c4ccccc34)n2)c(OC)cc1N(C)CCN(C)C` [Example 26], for which the GI50 in assay [1], in assay [4], in assay [5] and in assay [6] was below 5 nM in each case.

Turning to `C=CC(=O)Nc1cc(Nc2ncc(C(=O)OC(C)C)c(-n3cc4c(n3)Cc3ccccc3-4)n2)c(OC)cc1N(C)CCN(C)C` [Example 7], the IC50 in assay [2] worked out at 5600 nM; in assay [3], 1190 nM.

Consider `C=CC(=O)Nc1cc(Nc2nccc(-n3ncc4c3-c3ccccc3C4)n2)c(OC)cc1N(C)CCN(C)C` [Example 13], for which the IC50 in assay [2] amounted to 61.1 nM; in assay [3], 169 nM.

Take `C=CC(=O)Nc1cc(Nc2ncc(C(=O)OC(C)C)c(-n3ncc4c3Cc3ccccc3-4)n2)c(OC)cc1N(C)CCN(C)C` [Example 6]: the IC50 in assay [2] was found to be 9 nM; in assay [3], 1.38 nM.

`C=CC(=O)Nc1cc(Nc2ncc(C3=NOC(C)(C)N3)c(-c3cn(C)c4ccccc34)n2)c(OC)cc1N(C)CCN(C)C` [Example 19]: in assay [1], the GI50 is above 50 nM.

Consider `C=CC(=O)Nc1cc(Nc2ncc(-c3nnc(C)o3)c(-c3cn(C)c4ccccc34)n2)c(OC)cc1N(C)C1(CN(C)C)CC1` [Example 22], for which the GI50 in assay [1] is below 5 nM.

On to `C=CC(=O)Nc1cc(Nc2ncc(-c3nnc(C(C)C)o3)c(-c3cn(C)c4ccccc34)n2)c(OC)cc1N(C)CCN(C)C` [Example 31], for which the GI50 in assay [1] was below 5 nM.

On to `[2H]C([2H])([2H])n1cc(-c2nc(Nc3cc(NC(=O)C=C)c(N(C)CCN(C)C)nc3OCC(F)(F)F)ncc2CO)c2ccccc21` [Example 10], for which the results for the IC50 in assay [2] and in assay [3] were 36.4 nM and 7.66 nM, respectively.
